Test results reported in the NIST ThermoML archive (doi:10.1016/j.jct.2010.12.021).
Several values for one entry are separate records, joined by “and”; a condition that tells them apart may be missing. Equal values may be shown once.

Assay: molar heat capacity at constant pressure
Details: 101.33 kPa, Crystal, Small sample (50 mg) DSC

CCCCCC[n+]1cccc2ccccc21.O=S(=O)([N-]S(=O)(=O)C(F)(F)F)C(F)(F)F [1-hexylquinolinium bis(trifluoromethylsulfonyl)amide]
Details | molar heat capacity at constant pressure
203.04 K | 300.57 J/K/mol [middle of 4 runs]
203.05 K | 300.39 J/K/mol and 306.52 J/K/mol
203.06 K | 305.88 J/K/mol
203.08 K | 302.69 J/K/mol
203.13 K | 298.95 J/K/mol
203.21 K | 298.13 J/K/mol
203.35 K | 295.39 J/K/mol
203.56 K | 285.68 J/K/mol
203.85 K | 280.12 J/K/mol
204.22 K | 282.02 J/K/mol
204.66 K | 288.24 J/K/mol
205.16 K | 293.91 J/K/mol
205.7 K | 295.33 J/K/mol
206.26 K | 301.86 J/K/mol
206.82 K | 315.29 J/K/mol
207.36 K | 320.59 J/K/mol
207.9 K | 319.02 J/K/mol
208.43 K | 317.61 J/K/mol
208.95 K | 317.22 J/K/mol
209.48 K | 316.74 J/K/mol
210.02 K | 313.5 J/K/mol
210.58 K | 310.53 J/K/mol
211.15 K | 311.06 J/K/mol
211.74 K | 311.71 J/K/mol
212.32 K | 311.41 J/K/mol
212.92 K | 311.93 J/K/mol
213.51 K | 313.38 J/K/mol
214.11 K | 314.64 J/K/mol
214.7 K | 315.47 J/K/mol
215.3 K | 316.35 J/K/mol
215.9 K | 317.1 J/K/mol
216.5 K | 317.71 J/K/mol
217.1 K | 318.5 J/K/mol
217.7 K | 319.34 J/K/mol
218.3 K | 320.14 J/K/mol
218.9 K | 320.94 J/K/mol
219.5 K | 321.78 J/K/mol
220.1 K | 322.65 J/K/mol
220.7 K | 323.47 J/K/mol
221.3 K | 324.32 J/K/mol
221.9 K | 325.15 J/K/mol
222.5 K | 325.93 J/K/mol
223.1 K | 326.77 J/K/mol
223.7 K | 327.6 J/K/mol
224.3 K | 328.43 J/K/mol
224.9 K | 329.26 J/K/mol
225.5 K | 330.08 J/K/mol
226.1 K | 330.9 J/K/mol
226.7 K | 331.78 J/K/mol
227.3 K | 332.65 J/K/mol
227.9 K | 333.52 J/K/mol
228.5 K | 334.39 J/K/mol
229.1 K | 335.29 J/K/mol
229.7 K | 336.19 J/K/mol
230.3 K | 337.06 J/K/mol
230.9 K | 337.92 J/K/mol
231.5 K | 338.75 J/K/mol
232.1 K | 339.57 J/K/mol
232.7 K | 340.41 J/K/mol
233.3 K | 341.25 J/K/mol
233.9 K | 342.13 J/K/mol
234.5 K | 343.04 J/K/mol
235.11 K | 343.9 J/K/mol
235.71 K | 344.83 J/K/mol
236.31 K | 345.73 J/K/mol
236.91 K | 346.55 J/K/mol
237.51 K | 347.39 J/K/mol
238.11 K | 348.22 J/K/mol
238.71 K | 348.99 J/K/mol
239.31 K | 349.79 J/K/mol
239.91 K | 350.56 J/K/mol
240.51 K | 351.35 J/K/mol
241.11 K | 352.21 J/K/mol
241.71 K | 353.05 J/K/mol
242.31 K | 353.86 J/K/mol
242.91 K | 354.74 J/K/mol
243.51 K | 355.63 J/K/mol
244.11 K | 356.56 J/K/mol
244.71 K | 357.47 J/K/mol
245.31 K | 358.35 J/K/mol
245.91 K | 359.26 J/K/mol
246.51 K | 360.13 J/K/mol
247.11 K | 360.95 J/K/mol
247.71 K | 361.75 J/K/mol
248.31 K | 362.5 J/K/mol
248.91 K | 363.25 J/K/mol
249.51 K | 363.98 J/K/mol
250.11 K | 364.75 J/K/mol
250.71 K | 365.53 J/K/mol
251.31 K | 366.32 J/K/mol
251.91 K | 367.13 J/K/mol
252.51 K | 367.96 J/K/mol
253.11 K | 368.8 J/K/mol
253.71 K | 369.64 J/K/mol
254.31 K | 370.52 J/K/mol
254.91 K | 371.43 J/K/mol
255.51 K | 372.34 J/K/mol
256.11 K | 373.31 J/K/mol
256.71 K | 374.34 J/K/mol
257.31 K | 375.35 J/K/mol
257.91 K | 376.38 J/K/mol
258.51 K | 377.4 J/K/mol
259.11 K | 378.39 J/K/mol
259.71 K | 379.39 J/K/mol
260.31 K | 380.35 J/K/mol
260.91 K | 381.29 J/K/mol
261.51 K | 382.27 J/K/mol
262.11 K | 383.27 J/K/mol
262.71 K | 384.28 J/K/mol
263.31 K | 385.29 J/K/mol
263.91 K | 386.31 J/K/mol
264.51 K | 387.3 J/K/mol
265.11 K | 388.31 J/K/mol
265.71 K | 389.33 J/K/mol
266.32 K | 390.32 J/K/mol
266.92 K | 391.31 J/K/mol
267.52 K | 392.31 J/K/mol
268.12 K | 393.27 J/K/mol
268.72 K | 394.25 J/K/mol
269.32 K | 395.21 J/K/mol
269.92 K | 396.11 J/K/mol
270.52 K | 397.07 J/K/mol
271.12 K | 398.06 J/K/mol
271.72 K | 399.04 J/K/mol
272.32 K | 400.09 J/K/mol
272.92 K | 401.2 J/K/mol
273.52 K | 402.31 J/K/mol
274.12 K | 403.5 J/K/mol
274.72 K | 404.68 J/K/mol
275.32 K | 405.86 J/K/mol
275.92 K | 407.08 J/K/mol
276.52 K | 408.31 J/K/mol
277.12 K | 409.49 J/K/mol
277.72 K | 410.7 J/K/mol
278.32 K | 411.89 J/K/mol
278.92 K | 413.04 J/K/mol
279.52 K | 414.18 J/K/mol
280.12 K | 415.29 J/K/mol
280.72 K | 416.38 J/K/mol
281.32 K | 417.47 J/K/mol
281.92 K | 418.55 J/K/mol
282.52 K | 419.65 J/K/mol
